# Source: patent US20180221241A1, “ENHANCEMENT OF VASODILATORY FUNCTION AND LOWERING OF EFFECTIVE SYSTEMIC VASCULAR RESISTANCE” (THE GOVERNORS OF THE UNIVERSITY OF ALBERTA, priority 2015, published 2018)
# System: second order mesenteric resistance arteries
# Test: Pressure myograph system, vessel lumen diameter under controlled barometric pressure
# Design: species or system mice
# Details: for maximal increase in lumen diameter, cumulative response curve to methylcholine: doses 1 nM to 1 μM, barometric pressure PB674; for constriction or relaxation of vessel to drug administered in the bath: vessels immersed in Ca2+-free solution, n=7, p>0.05
# Method: Four-month-old male C57 mice were given access to standard chow and water ad-libitum and were housed on a 12 h-12 h light-dark cycle. Mice were euthanized through sodium pentobarbital administered interperitonially, and their mesenteries were removed and placed in freshly prepared cold physiological salt solution (10 HEPES, 5.5 glucose, 1.56 CaCl2, 4.7 KCl, 142 NaCl, 1.17 MgSO4, 1.18 KH2PO4, pH 7.5.).
# Two second order resistance arteries were dissected of surrounding connective tissue and mounted within a pressure myograph system (Living Systems Instrumentation; Burlington, Vt.). Vessels were tied onto glass cannulas with microscopic suture thread segments. Each vessel was immersed in a physiological salt solution bath, maintained at a temperature of 37° C. with the aid of a built-in temperature feedback mechanism connected to a miniature heating system. Intravascular pressure and flow were measured and alterable using pressure and flow control systems. A peristaltic pump was used to maintain specific rates of flow across the lumens vessels mounted in the pressure myograph system. To mimic physiological conditions as best as possible, the vessels were oriented as such that flow would be applied in the same direction as in vivo blood flow. The vessels were maintained at a perfusion pressure of 60 mmHg, the approximated in vivo mesentery arterial pressure of mice.
# Vessels were exposed to phenylephrine and methylcholine before the start of every protocol to ensure the vessel was intact and capable of responding to pressure and flow stimuli. In some protocols, one bath of the pressure myograph was infused with inhibitors of nitric oxide synthase and prostacyclins to inhibit the action of these two major endogenous endothelial vasodilators. This was performed in order to assess the effect of barometric pressure on mesenteric arteries isolated from the vasoactive influences of nitric oxide and prostacyclins.
# The entire myograph system was enclosed within a barometric pressure controlled chamber, capable of being sealed and pressure-controlled when necessary (FIG. 11). A control pressure was established on the pressure sensor in relation to the atmospheric pressure denoted by the meteorological service of Canada (Edmonton station). Pressure conditions PB714 and PB674 were assigned as 40 mmHg and 80 mmHg below atmospheric pressure, respectively. The conditions were maintained through a pressure apparatus.
# A pressure transducer and flow regulator coupled with a peristaltic pump mechanisms was set up so as to be manipulated from outside upon sealing the barometric pressure chamber around the myograph system. […]
# Vessel diameters and wall thicknesses were recorded with the help of a microscope-coupled micrometer. […]
smiles,measurement,setting,value
CC(=O)OC(C)C[N+](C)(C)C (stereo not shown),"maximal increase in lumen diameter, cumulative response curve to methylcholine",with L-NAME and meclofenamate (FIG. 4B),133%
same,"maximal increase in lumen diameter, cumulative response curve to methylcholine",without inhibitors (FIG. 4A),122%
same,constriction or relaxation of vessel to drug administered in the bath,,no constriction to phenylephrine or relaxation
CNC[C@H](O)c1cccc(O)c1 [phenylephrine],constriction or relaxation of vessel to drug administered in the bath,,no constriction
